According to patent US6544989B2, “Benzazoles: benzoxazole, benzthiazole and benzimidazole derivatives” (Syngenta Limited, priority 1998, dated 2003):

Tests used:
Uncinula necator = assay: Fungicidal test, Uncinula necator (UNCINE) on vines, PRCO; type: in vivo; conditions: METHOD 2 (unbanded)
[1] = system: Phytophthora infestans lycopersici; type: in vivo; conditions: METHOD 2 (unbanded)
Venturia inaequalis = assay: Fungicidal test, Venturia inaequalis (VENTIN) on apples, PRCO; type: in vivo; conditions: METHOD 2 (unbanded)
[2] = system: Erysiphe graminis f.sp. tritici; assay: Fungicidal test, Erysiphe graminis f.sp. tritici (ERYSGT) on wheat, PRCO; type: in vivo; conditions: METHOD 2 (unbanded)
Septoria nodorum = assay: Fungicidal test, Septoria nodorum (LEPTNO) on wheat, PRCO; type: in vivo; conditions: METHOD 2 (unbanded)
Puccinia recondita = assay: Fungicidal test, Puccinia recondita (PUCCRT) on wheat, PRCO; type: in vivo; conditions: METHOD 2 (unbanded)
Meloidogyne incognita = assay: Nematode test, J2 infective juveniles of Meloidogyne incognita, mortality; conditions: 12.5 ppm; J2 infective juveniles suspended in solution; mortality after three days
Description: (§1) The activities of individual compounds of formula (I) were determined using a variety of pests. With the exception of nematodes, the pests were treated with a liquid composition containing 500 parts per million (ppm) by weight of a compound unless otherwise stated. Each composition was made by dissolving the compound in an acetone and ethanol (50:50 by volume) mixture and diluting the solution with water containing 0.05% by volume of a wetting agent, SYNPERONIC NP8, until the liquid composition contained the required concentration of the compound.
The test procedure for nematodes involved dissolving the compound in an acetone and ethanol (50:50 by volume) mixture and diluting the solution with water to obtain a final concentration of the compound of 12.5 ppm. J2 infective juveniles of Meloidogyne incognita were suspended in the solution in a glass vial and mortality assessed after a period of three days.

Musca domestica = conditions: 500 ppm by weight; knockdown assessed 15 minutes after treatment
Description: as §1
The test procedure adopted with regard to each pest, except nematodes, was essentially the same and composed supporting a number of the pests on a medium which was usually a substrate, a host plant or a foodstuff on which the pests feed, and treating either or both the medium and the pests with a composition. Pest mortality was assessed usually between three and five days after treatment Knockdown of housefly (Musca domestica) was assessed 15 minutes after treatment

Structure (SMILES)	UNCINE 1 d Prot/Foir PRCO (Uncinula necator)	PHYTIN 1 d Prot/Foir PRCO [1]	VENTIN 1 d Prot/Foir PRCO (Venturia inaequalis)	ERYSGT 1 d Prot/Foir PRCO [2]	LEPTNO 1 d Prot/Foir PRCO (Septoria nodorum)	PUCCRT 1 d Prot/Foir PRCO (Puccinia recondita)	MELGIN = Meloidogyne incognita, grading of mortality (score) (Meloidogyne incognita)	MUSCDO AC = Musca domestica (knockdown), score (Musca domestica)	ERYSGT 6 hr Prot/Foir PRCO [2]
Cc1nsc(NC(=O)Cc2ccc3oc(C(C)Cl)nc3c2)c1Cl (racemic) [93(A3)]	10	49	6	32	24	38	0 (0 indicates less than 40% mortality)	–	–
Cc1nc2ccc(CC(=O)Nc3snc(C)c3Cl)cc2o1 [2(A23)]	–	100	–	−3	53	77	0 (0 indicates less than 40% mortality)	0 (0 indicates less than 40% mortality)	–
CCCc1nc2ccc(CC(=O)Nc3snc(C)c3Cl)cc2o1 [4(A23)]	–	100	–	59	63	100	0 (0 indicates less than 40% mortality)	0 (0 indicates less than 40% mortality)	–
CCCc1nc2cc(CC(=O)N(C)c3snc(C)c3Cl)ccc2o1 [4(B3)]	–	100	–	–	–	48	0 (0 indicates less than 40% mortality)	0 (0 indicates less than 40% mortality)	–
CCCc1nc2cc(CC(=O)N(CC)c3snc(C)c3Cl)ccc2o1 [4(C3)]	–	79	–	–	–	96	0 (0 indicates less than 40% mortality)	0 (0 indicates less than 40% mortality)	–
CCCc1nc2cc(CC(=O)N(CCC)c3snc(C)c3Cl)ccc2o1 [4(D3)]	–	96	–	–	–	90	0 (0 indicates less than 40% mortality)	0 (0 indicates less than 40% mortality)	–
C=CCN(C(=O)Cc1ccc2oc(CCC)nc2c1)c1snc(C)c1Cl [4(E3)]	–	95	–	–	–	97	0 (0 indicates less than 40% mortality)	0 (0 indicates less than 40% mortality)	–
C#CCN(C(=O)Cc1ccc2oc(CCC)nc2c1)c1snc(C)c1Cl [4(F3)]	–	99	–	–	–	100	0 (0 indicates less than 40% mortality)	0 (0 indicates less than 40% mortality)	–
CCCc1nc2cc(CC(=O)N(COC)c3snc(C)c3Cl)ccc2o1 [4(K3)]	–	98	–	–	–	100	0 (0 indicates less than 40% mortality)	0 (0 indicates less than 40% mortality)	–
CCCc1nc2cc(CC(=O)N(COCC)c3snc(C)c3Cl)ccc2o1 [4(L3)]	–	100	–	–	–	100	0 (0 indicates less than 40% mortality)	9 (9 indicates 80-100% mortality)	–
CCCc1nc2cc(CC(=O)N(COCCOC)c3snc(C)c3Cl)ccc2o1 [4(M3)]	–	81	–	–	–	85	0 (0 indicates less than 40% mortality)	0 (0 indicates less than 40% mortality)	–
CCCC(C)c1nc2cc(CC(=O)Nc3snc(C)c3Cl)ccc2o1 (stereo not shown) [12(A3)]	100	100	63	95	17	100	9 (9 indicates 80-100% mortality)	–	–
C=CCN(C(=O)Cc1ccc2oc(CC(C)(C)C)nc2c1)c1snc(C)c1Cl [15(E3)]	–	83	–	–	–	74	0 (0 indicates less than 40% mortality)	0 (0 indicates less than 40% mortality)	–
C#CCN(C(=O)Cc1ccc2oc(CC(C)(C)C)nc2c1)c1snc(C)c1Cl [15(F3)]	–	100	–	–	–	95	0 (0 indicates less than 40% mortality)	0 (0 indicates less than 40% mortality)	–
COCCOCN(C(=O)Cc1ccc2oc(CC(C)(C)C)nc2c1)c1snc(C)c1Cl [15(M3)]	–	98	–	–	–	6	0 (0 indicates less than 40% mortality)	0 (0 indicates less than 40% mortality)	–
Cc1nsc(NC(=O)Cc2ccc3oc(C4CCCCC4)nc3c2)c1Cl [35(A3)]	–	84	–	93	−15	100	0 (0 indicates less than 40% mortality)	0 (0 indicates less than 40% mortality)	–
Cc1nsc(NC(=O)Cc2ccc3oc(C4(C)CCCCC4)nc3c2)c1Cl [36(A3)]	99	100	44	72	2	91	0 (0 indicates less than 40% mortality)	–	–
Cc1nsc(NC(=O)Cc2ccc3oc(CC4CCCC4)nc3c2)c1Cl [42(A3)]	100	100	74	92	11	99	0 (0 indicates less than 40% mortality)	–	92
Cc1nsc(NC(=O)Cc2ccc3oc(C=Cc4ccc([N+](=O)[O-])cc4)nc3c2)c1Cl [63(A3)]	14	66	13	40	2	69	–	–	–
Cc1nsc(NC(=O)Cc2ccc3oc(CSc4ccccc4)nc3c2)c1Cl [173(A3)]	−12	77	50	16	2	63	0 (0 indicates less than 40% mortality)	–	–
Cc1nsc(NC(=O)Cc2ccc3oc(SCC#N)nc3c2)c1Cl [228(A3)]	–	66	–	–	–	6	0 (0 indicates less than 40% mortality)	0 (0 indicates less than 40% mortality)	–
Cc1nsc(NC(=O)Cc2ccc3oc(C(c4ccccc4)c4ccccc4)nc3c2)c1Cl [246(A3)]	−7	79	13	16	27	13	0 (0 indicates less than 40% mortality)	–	–
Cc1nsc(NC(=O)Cc2ccc3oc(-c4ccccc4Cl)nc3c2)c1Cl [253(A3)]	100	98	34	94	8	99	0 (0 indicates less than 40% mortality)	–	94
COc1ccccc1-c1nc2cc(CC(=O)Nc3snc(C)c3Cl)ccc2o1 [305(A3)]	19	74	−6	16	−2	81	0 (0 indicates less than 40% mortality)	–	16
Cc1nsc(NC(=O)Cc2ccc3oc(-c4cccs4)nc3c2)c1Cl [330(A3)]	14	99	6	87	37	99	0 (0 indicates less than 40% mortality)	–	–
Cc1nsc(NC(=O)Cc2ccc3oc(-c4ccncc4)nc3c2)c1Cl [339(A3)]	–	0	–	−7	0	31	0 (0 indicates less than 40% mortality)	0 (0 indicates less than 40% mortality)	–
Cc1nsc(NC(=O)Cc2ccc3oc(O)nc3c2)c1Cl [351(A3)]	11	–	–	–	–	–	0 (0 indicates less than 40% mortality)	0 (0 indicates less than 40% mortality)	–
Cc1nsc(NC(=O)Cc2ccc3oc(S)nc3c2)c1Cl [352(A3)]	–	100	–	–	–	100	0 (0 indicates less than 40% mortality)	0 (0 indicates less than 40% mortality)	–
